Earlier results in patent publication US20230172901A1, “COMPOSITIONS AND METHODS FOR THE PROPHYLAXIS AND TREATMENT OF FIBROTIC AND INFLAMMATORY CONDITIONS” (GRETALS AUSTRALIA PTY LTD, priority 2020, published 2023).

System: IPF patients
Details: prior art, cited from earlier work

SMILES | quality of life / respiratory parameters (IPF patients) | survival (IPF patients) | progression-free survival (IPF patients) | side effects
COC(=O)c1ccc2c(c1)NC(=O)/C2=C(\Nc1ccc(N(C)C(=O)CN2CCN(C)CC2)cc1)c1ccccc1 [Nintendanib] | can improve quality of life | do not improve survival |  | 
Cc1ccc(=O)n(-c2ccccc2)c1 [Perfenidone] |  |  | improve progression-free survival | provokes a range of side effects in the skin, gastrointestinal tract, liver, and nervous system
